Assay results as given in patent US11484607B2, “PSMA-targeted NIR dyes and their uses” (On Target Laboratories, LLC, priority 2015, dated 2022).

Tests used:
[1] = test system: human prostate tumor xenografts (22Rv1 cells); assay: Tissue biodistribution and tumor-to-tissue fluorescence ratio of DUPA-NIR conjugates, IVIS imaging; type: in vivo, mice; details: 2 h after tail vein injection
Protocol: In vivo studies. More specifically, biodistribution of DUPA-NIR conjugates 1-9 was monitored using fluorescence imaging of mice bearing human prostate tumor xenografts (22Rv1 cells). Male nude mice with 22Rv1 tumor xenografts were injected with DUPA-NIR dye conjugates via tail vein. The mice were euthanized 2 h after administration of the DUPA-NIR dye conjugate, selected tissues were harvested, and tissues were imaged with IVIS imager (ex=745 nm, em=ICG, exposure time=1 s).
The conjugates were also tested to show the ratio of tumor-to-tissue fluorescence. […] After imaging, fluorescence within a Region of interest (ROI) was measured for each tissue using In Vivo imaging software and tumor-to-tissue fluorescence was then calculated
(§1) in vivo studies. […] Male nude mice with 22Rv1 tumor xenografts were injected with DUPA-NIR dye conjugates via tail vein. The mice were euthanized 2 h after administration of the DUPA-NIR dye conjugate, selected tissues were harvested, and tissues were imaged with IVIS imager (ex=745 nm, em=ICG, exposure time=1 s). After imaging, fluorescence within a Region of interest (ROI) was measured for each tissue using In Vivo imaging software and tumor-to-tissue fluorescence was then calculated.
Male nude mice with 22Rv1 tumor xenografts were injected with DUPA-NIR dye conjugates via tail vein. The mice were euthanized 2 h after administration of the DUPA-NIR dye conjugate, selected tissues were harvested, and tissues were imaged with IVIS imager (ex=745 nm, em=ICG, exposure time=1 s). After imaging, fluorescence within a Region of interest (ROI) was measured for each tissue using In Vivo imaging software and tumor-to-tissue fluorescence was then calculated.
as §1, with “In vivo” for “in vivo”

[2] = test system: 22Rv1 human prostate tumor xenograft; assay: Time dependent whole-body fluorescence imaging of DUPA-NIR conjugates, IVIS imager; type: in vivo, mouse; details: for whole-body imaging: 6 or 20 nmol, imaged at different time intervals
Protocol: 22Rv1 human prostate tumor xenograft bearing mouse was injected with 20 nmol of 15 and imaged with IVIS imager (ex=745 nm, em=ICG, exposure time=1 s) at different time intervals.
22Rv1 human prostate tumor xenograft bearing mouse was injected with 20 nmol of 23 and imaged with IVIS imager (ex=745 nm, em=ICG, exposure time=1 s) at different time intervals.
22Rv1 human prostate tumor xenograft bearing mouse was injected with 20 nmol of 25 and imaged with IVIS imager (ex=745 nm, em=ICG, exposure time=1 s) at different time intervals
22Rv1 human prostate tumor xenograft bearing mouse was injected with 6 nmol of 35 and imaged with IVIS imager (ex=745 nm, em=ICG, exposure time=1 s) at different time intervals.
22Rv1 human prostate tumor xenograft bearing mouse was injected with 6 nmol of 36 and imaged with IVIS imager (ex=745 nm, em=ICG, exposure time=1 s) at different time intervals.
22Rv1 human prostate tumor xenograft bearing mouse was injected with 20 nmol of 39 and imaged with IVIS imager (ex=745 nm, em=ICG, exposure time=1 s) at different time intervals.
22Rv1 human prostate tumor xenograft bearing mouse was injected with 20 nmol of 40 and imaged with IVIS imager (ex=745 nm, em=ICG, exposure time=1 s) at different time intervals.
22Rv1 human prostate tumor xenograft bearing mouse was injected with 20 nmol of 41 and imaged with IVIS imager (ex=745 nm, em=ICG, exposure time=1 s) at different time intervals.
FIG. 25: Overlay of whole body or half body fluorescence image over white light images after adjusting the threshold. 22Rv1 human prostate tumor xenograft bearing mouse was injected with 20 nmol of 54 and imaged with IVIS imager (ex=745 nm, em=ICG, exposure time=1 s) at different time intervals.
22Rv1 human prostate tumor xenograft bearing mouse was injected with 20 nmol of 55 and imaged with IVIS imager (ex=745 nm, em=ICG, exposure time=1 s) at different time intervals.
22Rv1 human prostate tumor xenograft bearing mouse was injected with 20 nmol of 56 and imaged with IVIS imager (ex=745 nm, em=ICG, exposure time=1 s) at different time intervals.
22Rv1 human prostate tumor xenograft bearing mouse was injected with 20 nmol of 57 and imaged with IVIS imager (ex=745 nm, em=ICG, exposure time=1 s) at different time intervals
22Rv1 human prostate tumor xenograft bearing mouse was injected with 20 nmol of 58 and imaged with IVIS imager (ex=745 nm, em=ICG, exposure time=1 s) at different time intervals
22Rv1 human prostate tumor xenograft bearing mouse was injected with 20 nmol of 60 and imaged with IVIS imager (ex=745 nm, em=ICG, exposure time=1 s) at different time intervals.
in vivo studies. […] 22Rv1 human prostate tumor xenograft bearing mouse was injected with 20 nmol of 63 and imaged with IVIS imager (ex=745 nm, em=ICG, exposure time=1 s) at different time intervals.
22Rv1 human prostate tumor xenograft bearing mouse was injected with 6 nmol of 63 and imaged with IVIS imager (ex=745 nm, em=ICG, exposure time=1 s) at different time intervals.
22Rv1 human prostate tumor xenograft bearing mouse was injected with 20 nmol of 64 and imaged with IVIS imager (ex=745 nm, em=ICG, exposure time=1 s) at different time intervals.
22Rv1 human prostate tumor xenograft bearing mouse was injected with 6 nmol of 15 and imaged with IVIS imager (ex=745 nm, em=ICG, exposure time=1 s) at different time intervals.

PSMA = molecular target: T1, PSMA (Homo sapiens, UniProt Q04609); assay: Relative binding affinity of DUPA-NIR conjugates with respect to DUPA-FITC on 22Rv1 cells, flow cytometry; details: for affinity for PSMA (in words): in vitro binding affinity data; for Kd: conjugates with aromatic linkers, 1 h at 37° C., 100 nM DUPA-FITC
T1 construct: host or cells: 22Rv1 human prostate cancer cells
T1 sequence (Q04609 whole entry): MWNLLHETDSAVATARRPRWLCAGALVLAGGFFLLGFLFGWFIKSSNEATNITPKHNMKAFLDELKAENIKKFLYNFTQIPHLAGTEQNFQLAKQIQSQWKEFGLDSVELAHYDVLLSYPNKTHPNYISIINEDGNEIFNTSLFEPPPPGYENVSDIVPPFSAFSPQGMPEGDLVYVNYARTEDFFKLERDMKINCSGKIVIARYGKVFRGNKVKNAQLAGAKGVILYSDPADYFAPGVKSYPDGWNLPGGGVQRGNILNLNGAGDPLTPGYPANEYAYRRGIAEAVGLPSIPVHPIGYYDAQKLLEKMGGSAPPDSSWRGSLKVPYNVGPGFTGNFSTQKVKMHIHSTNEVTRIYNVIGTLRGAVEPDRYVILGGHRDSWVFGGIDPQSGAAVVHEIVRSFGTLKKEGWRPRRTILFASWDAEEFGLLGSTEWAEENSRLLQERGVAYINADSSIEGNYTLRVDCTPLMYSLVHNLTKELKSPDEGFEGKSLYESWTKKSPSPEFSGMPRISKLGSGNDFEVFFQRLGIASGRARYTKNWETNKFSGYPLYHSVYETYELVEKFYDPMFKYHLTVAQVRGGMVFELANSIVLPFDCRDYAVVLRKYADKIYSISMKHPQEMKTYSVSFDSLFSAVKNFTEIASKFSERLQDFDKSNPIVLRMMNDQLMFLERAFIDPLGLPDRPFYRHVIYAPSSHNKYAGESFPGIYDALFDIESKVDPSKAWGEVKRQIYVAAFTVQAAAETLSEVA
Protocol: (§2) FIG. 3—Relative binding affinities of DUPA-NIR conjugates 1-9 with respect to DUPA-FITC (14). PSMA-positive 22Rv1 human prostate cancer cells were incubated for 1 h at 37° C. in the presence of 100 nM DUPA-FITC with increasing concentrations of DUPA-NIR conjugates. […] Cell bound fluorescence was assayed as using flow cytometry.
as §2, with “6—Relative” for “3—Relative”, “with aromatic amino acids linkers” for “1-9”
as §2, with “3 Relative” for “3—Relative”
in vitro studies. […] PSMA-positive 22Rv1 human prostate cancer cells were incubated for 1 h at 37° C. in the presence of 100 nM DUPA-FITC with increasing concentrations of DUPA-NIR conjugates. […] Cell bound fluorescence was assayed as using flow cytometry.
PSMA-positive 22Rv1 human prostate cancer cells were incubated for 1 h at 37° C. in the presence of 100 nM DUPA-FITC with increasing concentrations of DUPA-NIR conjugates. […] Cell bound fluorescence was assayed as using flow cytometry.
as §2, with “24: Relative” for “3—Relative”, “conjugates” for “conjugates 1-9”
PSMA-positive 22Rv1 human prostate cancer cells were incubated for 1 h at 37° C. in the presence of 100 nM DUPA-FITC with increasing concentrations of DUPA-NIR conjugates. […] Cell bound fluorescence was assayed as using flow cytometry
Cancer cells were incubated for 1 h at 37° C. in the presence of 100 nM DUPA-FITC with increasing concentrations of compound 15. […] Cell bound fluorescence was assayed as using flow cytometry.

[3] = Concentration dependent UV spectrometric study of higher order aggregates; type: physicochemical
Protocol: Possible OTL78-related hypersensitivity in human was next examined using basophil activation assay. Drug related hypersensitivity is mainly due to immune response caused by cross-linking of immunoglobulin E (IgE) expressed on mast cells and basophils (FIG. 47D) resulting in activation and subsequent degranulation to release vasoactive amines, prostaglandins, and cytokines (29). Since cross-linking of IgE can be due to aggregates, concentration dependent UV spectrometric studies were conducted to determine higher order aggregates of OTL78.

Row | affinity for PSMA (in words) (PSMA) | Compound | tumor-to-background ratio (TBR), in words [1] | sites of accumulation in whole-body imaging ([2]; 6 nmol, time dependent) | whole-body imaging [2] | Kd (PSMA) [µM] | higher aggregates ([3]; 75 μM concentration in saline) [%] | higher order aggregates (UV spectra), in words ([3]; 75 μM in saline)
1 | very high affinity | CC1(C)C(/C=C/C2=C(Oc3ccc(C[C@H](NC(=O)[C@H](Cc4ccccc4)NC(=O)CCCCCCCNC(=O)CC[C@H](NC(=O)N[C@@H](CCC(=O)O)C(=O)O)C(=O)O)C(=O)O)cc3)C(=C/C=C3/N(CCCCS(=O)(=O)O)c4ccc(S(=O)(=O)O)cc4C3(C)C)/CCC2)=[N+](CCCCS(=O)(=O)[O-])c2ccc(S(=O)(=O)O)cc21 [Compound 15] | excellent | accumulated in PSMA-positive tumors and kidneys | very good whole-body imaging data within 2-4 hours |  |  | 
2 | very high affinity | CC1(C)C(/C=C/C2=C(SC[C@H](NC(=O)[C@H](Cc3ccccc3)NC(=O)CCCCCCCNC(=O)CC[C@H](NC(=O)N[C@@H](CCC(=O)O)C(=O)O)C(=O)O)C(=O)O)C(=C/C=C3/N(CCCCS(=O)(=O)O)c4ccc(S(=O)(=O)O)cc4C3(C)C)/CCC2)=[N+](CCCCS(=O)(=O)[O-])c2ccc(S(=O)(=O)O)cc21 [Compound 25] |  |  | very good whole-body imaging data within 2-4 hours | 0.0063 |  | 
3 |  | CC1(C)C(/C=C/C2=C(Oc3ccc(C[C@H](NC(=O)[C@H](Cc4ccccc4)NC(=O)CCOCCOCCNC(=O)CC[C@H](NC(=O)N[C@@H](CCC(=O)O)C(=O)O)C(=O)O)C(=O)O)cc3)C(=C/C=C3/N(CCCCS(=O)(=O)O)c4ccc(S(=O)(=O)O)cc4C3(C)C)/CCC2)=[N+](CCCCS(=O)(=O)[O-])c2ccc(S(=O)(=O)O)cc21 [Compound 35] | excellent |  | very good whole-body imaging data within 2-4 hours | 0.0239 |  | 
4 | very high affinity | CC1(C)C(/C=C/C2=C(Oc3ccc(C[C@H](NC(=O)[C@](C)(Cc4ccc(F)cc4)NC(=O)CCOCCOCCNC(=O)CC[C@H](NC(=O)N[C@@H](CCC(=O)O)C(=O)O)C(=O)O)C(=O)O)cc3)C(=C/C=C3/N(CCCCS(=O)(=O)O)c4ccc(S(=O)(=O)O)cc4C3(C)C)/CCC2)=[N+](CCCCS(=O)(=O)[O-])c2ccc(S(=O)(=O)O)cc21 [Compound 36] |  |  | very good whole-body imaging data within 2-4 hours |  |  | 
5 | very high affinity | CC1(C)C(/C=C/C2=C(Oc3ccc(C[C@H](NC(=O)[C@H](CCCNC(=N)N)NC(=O)[C@H](Cc4ccccc4)NC(=O)CCCCCCCNC(=O)CC[C@H](NC(=O)N[C@@H](CCC(=O)O)C(=O)O)C(=O)O)C(=O)O)cc3)C(=C/C=C3/N(CCCCS(=O)(=O)O)c4ccc(S(=O)(=O)O)cc4C3(C)C)/CCC2)=[N+](CCCCS(=O)(=O)[O-])c2ccc(S(=O)(=O)O)cc21 [Compound 41] |  |  | very good whole-body imaging |  |  | 
6 |  | OTL38 [reference compound] |  |  |  |  | > 50 | concentration dependent aggregation peak
